Measured values reported in ChEMBL document CHEMBL3885881, “DrugMatrix”.

Species: Rattus norvegicus
Test: DrugMatrix - Regimen: Daily Repeat
Format: toxicity, organism-based, Sprague-Dawley
Set-up: regimen Daily Repeat, gender Male, age 6-8 weeks
Details: in vivo, ip, route intraperitoneal, vehicle 100 % SALINE; for ALANINE AMINOTRANSFERASE / ALBUMIN / ALKALINE PHOSPHATASE / ASPARTATE AMINOTRANSFERASE / BLOOD UREA NITROGEN / CARBON DIOXIDE / CHLORIDE / CHOLESTEROL / CREATINE PHOSPHOKINASE / CREATININE / GLUCOSE / LACTATE DEHYDROGENASE / LIPASE / PHOSPHORUS / POTASSIUM / SODIUM / TOTAL BILIRUBIN / TOTAL PROTEIN / URIC ACID: tissue Plasma; for ABSOLUTE BASOPHIL / ABSOLUTE EOSINOPHIL / ABSOLUTE LYMPHOCYTE / ABSOLUTE MONOCYTE / ABSOLUTE SEGMENTED NEUTROPHIL / BASOPHIL / EOSINOPHIL / ERYTHROCYTE COUNT / HEMATOCRIT / HEMOGLOBIN / LEUKOCYTE COUNT / LYMPHOCYTE / MEAN CORPUSCULAR HEMOGLOBIN / MEAN CORPUSCULAR HEMOGLOBIN CONCENTRATION / MEAN CORPUSCULAR VOLUME / MONOCYTE / NEUTROPHIL / NUCLEATED RED BLOOD CELLS / PLATELET COUNT: tissue Blood
[1] = 16 mg/kg, […], dose level Low, time 7 day
[2] = 25 mg/kg, 72 h, dose level M1, time 3 day
[3] = 25 mg/kg, […], dose level M1, time 7 day
[4] = 32 mg/kg, 72 h, dose level High, time 3 day
[5] = 32 mg/kg, 120 h, dose level High, time 5 day

## C=CCO [ALLYL ALCOHOL]
[1]
  ALANINE AMINOTRANSFERASE: 80.83 u/L
  ALBUMIN: 4.13 G/DL
  ALKALINE PHOSPHATASE: 183 u/L
  ASPARTATE AMINOTRANSFERASE: 104.33 u/L
  BLOOD UREA NITROGEN: 16.67 mg/dL
  CARBON DIOXIDE: 32.17 mmol/L
  CHLORIDE: 100.67 MEQ/L
  CHOLESTEROL: 73.5 mg/dL
  CREATINE PHOSPHOKINASE: 256 u/L
  CREATININE: 0.27 mg/dL
  GLUCOSE: 141 mg/dL
  LACTATE DEHYDROGENASE: 96.17 u/L
  LIPASE: 10.5 u/L
  PHOSPHORUS: 10.28 mg/dL
  POTASSIUM: 5.47 MEQ/L
  SODIUM: 142.65 MEQ/L
  TOTAL BILIRUBIN: 0.12 mg/dL
  TOTAL PROTEIN: 6.32 G/DL
  URIC ACID: 0.65 mg/dL
[2]
  ABSOLUTE BASOPHIL: 0 CELLS/uL
  ABSOLUTE EOSINOPHIL: 43.33 CELLS/uL
  ABSOLUTE LYMPHOCYTE: 12346.17 CELLS/uL
  ABSOLUTE MONOCYTE: 299.67 CELLS/uL
  ABSOLUTE SEGMENTED NEUTROPHIL: 1244.17 CELLS/uL
  BASOPHIL: 0%
  EOSINOPHIL: 0.33%
  ERYTHROCYTE COUNT: 5.36 x10E6/uL
  HEMATOCRIT: 34.17%
  HEMOGLOBIN: 13.52 G/DL
  LEUKOCYTE COUNT: 13.93 x10E3/uL
  LYMPHOCYTE: 88.17%
  MEAN CORPUSCULAR HEMOGLOBIN: 25.25 pg
  MEAN CORPUSCULAR HEMOGLOBIN CONCENTRATION: 39.62 G/DL
  MEAN CORPUSCULAR VOLUME: 63.8 fL
  MONOCYTE: 2.17%
  NEUTROPHIL: 9.33%
  NUCLEATED RED BLOOD CELLS: 0 /100WBC
  PLATELET COUNT: 1124.67 x10E3/uL
  ALANINE AMINOTRANSFERASE: 46.67 u/L
  ALBUMIN: 4 G/DL
  ALKALINE PHOSPHATASE: 230.83 u/L
  ASPARTATE AMINOTRANSFERASE: 67.33 u/L
  BLOOD UREA NITROGEN: 11.17 mg/dL
  CARBON DIOXIDE: 32.67 mmol/L
  CHLORIDE: 102 MEQ/L
  CHOLESTEROL: 77.17 mg/dL
  CREATINE PHOSPHOKINASE: 229.5 u/L
  CREATININE: 0.39 mg/dL
  GLUCOSE: 137 mg/dL
  LACTATE DEHYDROGENASE: 101.67 u/L
  LIPASE: 8.33 u/L
  PHOSPHORUS: 9.72 mg/dL
  POTASSIUM: 5.84 MEQ/L
  SODIUM: 141.88 MEQ/L
  TOTAL BILIRUBIN: 0.17 mg/dL
  TOTAL PROTEIN: 6.07 G/DL
  URIC ACID: 1.12 mg/dL
[3]
  ABSOLUTE BASOPHIL: 0 CELLS/uL
  ABSOLUTE EOSINOPHIL: 65.67 CELLS/uL
  ABSOLUTE LYMPHOCYTE: 7275.5 CELLS/uL
  ABSOLUTE MONOCYTE: 150.67 CELLS/uL
  ABSOLUTE SEGMENTED NEUTROPHIL: 874.83 CELLS/uL
  BASOPHIL: 0%
  EOSINOPHIL: 0.67%
  ERYTHROCYTE COUNT: 5.49 x10E6/uL
  HEMATOCRIT: 34.07%
  HEMOGLOBIN: 13.33 G/DL
  LEUKOCYTE COUNT: 8.37 x10E3/uL
  LYMPHOCYTE: 87.67%
  MEAN CORPUSCULAR HEMOGLOBIN: 24.3 pg
  MEAN CORPUSCULAR HEMOGLOBIN CONCENTRATION: 39.13 G/DL
  MEAN CORPUSCULAR VOLUME: 62.12 fL
  MONOCYTE: 1.83%
  NEUTROPHIL: 9.83%
  NUCLEATED RED BLOOD CELLS: 0 /100WBC
  PLATELET COUNT: 1389.83 x10E3/uL
  ALANINE AMINOTRANSFERASE: 80.83 u/L
  ALBUMIN: 4.2 G/DL
  ALKALINE PHOSPHATASE: 232.83 u/L
  ASPARTATE AMINOTRANSFERASE: 88.17 u/L
  BLOOD UREA NITROGEN: 15 mg/dL
  CARBON DIOXIDE: 31.33 mmol/L
  CHLORIDE: 101 MEQ/L
  CHOLESTEROL: 66.5 mg/dL
  CREATINE PHOSPHOKINASE: 274.5 u/L
  CREATININE: 0.28 mg/dL
  GLUCOSE: 136.67 mg/dL
  LACTATE DEHYDROGENASE: 97 u/L
  LIPASE: 10.5 u/L
  PHOSPHORUS: 9.85 mg/dL
  POTASSIUM: 5.63 MEQ/L
  SODIUM: 144.45 MEQ/L
  TOTAL BILIRUBIN: 0.1 mg/dL
  TOTAL PROTEIN: 6.35 G/DL
  URIC ACID: 0.85 mg/dL
[4]
  ABSOLUTE BASOPHIL: 0 CELLS/uL
  ABSOLUTE EOSINOPHIL: 16 CELLS/uL
  ABSOLUTE LYMPHOCYTE: 7549.2 CELLS/uL
  ABSOLUTE MONOCYTE: 147.6 CELLS/uL
  ABSOLUTE SEGMENTED NEUTROPHIL: 1267.2 CELLS/uL
  BASOPHIL: 0%
  EOSINOPHIL: 0.2%
  ERYTHROCYTE COUNT: 5.74 x10E6/uL
  HEMATOCRIT: 34.96%
  HEMOGLOBIN: 13.16 G/DL
  LEUKOCYTE COUNT: 8.98 x10E3/uL
  LYMPHOCYTE: 84%
  MEAN CORPUSCULAR HEMOGLOBIN: 22.98 pg
  MEAN CORPUSCULAR HEMOGLOBIN CONCENTRATION: 37.66 G/DL
  MEAN CORPUSCULAR VOLUME: 61.06 fL
  MONOCYTE: 1.6%
  NEUTROPHIL: 14.2%
  NUCLEATED RED BLOOD CELLS: 0 /100WBC
  PLATELET COUNT: 945 x10E3/uL
  ALANINE AMINOTRANSFERASE: 456.4 u/L
  ALBUMIN: 3.86 G/DL
  ALKALINE PHOSPHATASE: 444.6 u/L
  ASPARTATE AMINOTRANSFERASE: 939.2 u/L
  BLOOD UREA NITROGEN: 15.6 mg/dL
  CARBON DIOXIDE: 28.24 mmol/L
  CHLORIDE: 98.33 MEQ/L
  CHOLESTEROL: 70.6 mg/dL
  CREATINE PHOSPHOKINASE: 527.8 u/L
  CREATININE: 0.2 mg/dL
  GLUCOSE: 138.2 mg/dL
  LACTATE DEHYDROGENASE: 186.6 u/L
  LIPASE: 9.25 u/L
  PHOSPHORUS: 9.34 mg/dL
  POTASSIUM: 5.07 MEQ/L
  SODIUM: 143.03 MEQ/L
  TOTAL BILIRUBIN: 0.2 mg/dL
  TOTAL PROTEIN: 5.94 G/DL
  URIC ACID: 0.58 mg/dL
[5]
  ABSOLUTE BASOPHIL: 0 CELLS/uL
  ABSOLUTE EOSINOPHIL: 0 CELLS/uL
  ABSOLUTE LYMPHOCYTE: 8954.4 CELLS/uL
  ABSOLUTE MONOCYTE: 236 CELLS/uL
  ABSOLUTE SEGMENTED NEUTROPHIL: 1769.6 CELLS/uL
  BASOPHIL: 0%
  EOSINOPHIL: 0%
  ERYTHROCYTE COUNT: 5.51 x10E6/uL
  HEMATOCRIT: 33.82%
  HEMOGLOBIN: 12.86 G/DL
  LEUKOCYTE COUNT: 10.96 x10E3/uL
  LYMPHOCYTE: 81.4%
  MEAN CORPUSCULAR HEMOGLOBIN: 23.36 pg
  MEAN CORPUSCULAR HEMOGLOBIN CONCENTRATION: 38.08 G/DL
  MEAN CORPUSCULAR VOLUME: 61.42 fL
  MONOCYTE: 2.2%
  NEUTROPHIL: 16.4%
  NUCLEATED RED BLOOD CELLS: 0 /100WBC
  PLATELET COUNT: 1673 x10E3/uL
  ALANINE AMINOTRANSFERASE: 57.8 u/L
  ALBUMIN: 4.32 G/DL
  ALKALINE PHOSPHATASE: 372.6 u/L
  ASPARTATE AMINOTRANSFERASE: 80.8 u/L
  BLOOD UREA NITROGEN: 12.6 mg/dL
  CARBON DIOXIDE: 32.4 mmol/L
  CHLORIDE: 102 MEQ/L
  CHOLESTEROL: 79.8 mg/dL
  CREATINE PHOSPHOKINASE: 211.6 u/L
  CREATININE: 0.16 mg/dL
  GLUCOSE: 162.6 mg/dL
  LACTATE DEHYDROGENASE: 154.6 u/L
  LIPASE: 9.6 u/L
  PHOSPHORUS: 9.92 mg/dL
  POTASSIUM: 5.73 MEQ/L
  SODIUM: 143.6 MEQ/L
  TOTAL BILIRUBIN: 0.22 mg/dL
  TOTAL PROTEIN: 6.56 G/DL
  URIC ACID: 0.94 mg/dL
